Data: ChEMBL document CHEMBL4145615, “Indolyl Azaspiroketal Mannich Bases Are Potent Antimycobacterial Agents with Selective Membrane Permeabilizing Effects and in Vivo Activity” (J Med Chem, 2018)
In brackets after ≈: the same amount, converted by molar mass.

System: Mycobacterium tuberculosis variant bovis BCG
Assay: Antimycobacterial activity against Mycobacterium bovis BCG ATCC 35734 after 5 days by broth dilution method
Format: functional
Details: ATCC 35734, 120 h

Compound	MIC50	MIC90
CCCCCCCCn1cc(CN2CCC3(CC2)OCCO3)c2ccc(OC(C)C)cc21	3 µM (≈ 1.33 µg/mL)	6 µM (≈ 2.66 µg/mL)
CCCCCCCCn1cc(CN2CCOC3(CCCO3)C2)c2ccc(OC)cc21 (stereo not given)	15 µM (≈ 6.22 µg/mL)	46 µM (≈ 19.1 µg/mL)
CCCCCCCCn1ccc2cccc(OCCCN3CCCCCC3)c21	5 µM (≈ 1.92 µg/mL)	11 µM (≈ 4.23 µg/mL)
CCCCCCCCn1cc(CN2CC3C(C2)C3(F)F)c2ccc(OC)cc21 (stereo not given)	21 µM (≈ 8.2 µg/mL)	50 µM (≈ 19.5 µg/mL)
CCCCCCCCn1cc(CN2CCC3(CCO3)CC2)c2ccc(OC)cc21	2 µM (≈ 0.797 µg/mL)	4 µM (≈ 1.59 µg/mL)
CCCCCCCCn1cc(CNCC2CC3CCC2C3)c2ccc(OC)cc21 (stereo not given)	1.1 µM (≈ 0.436 µg/mL)	1.9 µM (≈ 0.754 µg/mL)
CCCCCCCCn1cc(CN2CCC3(CC2)OC(C)C(C)O3)c2ccc(OC)cc21 (stereo not given)	0.7 µM (≈ 0.31 µg/mL)	1.6 µM (≈ 0.708 µg/mL)
COc1ccc2c(CN3CCCCC3)cn(CCCOc3ccc(F)cc3)c2c1	20 µM (≈ 7.93 µg/mL)	43 µM (≈ 17 µg/mL)
CCCCCCCCn1cc(CN2CCCCC2)c2ccc(OC(C)C)cc21	4 µM (≈ 1.54 µg/mL)	6 µM (≈ 2.31 µg/mL)
COc1ccc2c(CN3CCC4(CC3)OCCO4)cn(CCCOCc3ccccc3)c2c1	16 µM (≈ 7.21 µg/mL)	40 µM (≈ 18 µg/mL)
COc1ccc2c(CN3CCC4(CC3)OCCO4)cn(CCCOc3ccc(F)cc3)c2c1	5 µM (≈ 2.27 µg/mL)	11 µM (≈ 5 µg/mL)
CCCCCCCCn1cc(CNC2CCC3(CC2)OCCO3)c2ccc(OC)cc21	3.6 µM (≈ 1.54 µg/mL)	6.3 µM (≈ 2.7 µg/mL)
COc1ccc(CCCn2cc(CN3CCC4(CC3)OCCCO4)c3ccc(OC)cc32)cc1	4.1 µM (≈ 1.9 µg/mL)	9.3 µM (≈ 4.32 µg/mL)
COc1ccc2c(CN3CCC4(CC3)OCCO4)cn(CCCOc3ccc(C)c(C)c3)c2c1	4.6 µM (≈ 2.14 µg/mL)	11 µM (≈ 5.11 µg/mL)
CCCCCCCCn1ccc2c(OCCCN3CCCCCC3)cccc21	9.5 µM (≈ 3.65 µg/mL)	22 µM (≈ 8.46 µg/mL)
CCCCCCCCn1cc(CN2CCC3(CC2)OCCCO3)c2ccc(OCc3ccccc3)cc21	2.2 µM (≈ 1.11 µg/mL)	3.1 µM (≈ 1.56 µg/mL)
CCCCCCCCn1cc(CN2CCC3(CC2)OCCCO3)c2c([N+](=O)[O-])cccc21	10 µM (≈ 4.44 µg/mL)	25 µM (≈ 11.1 µg/mL)
COc1ccc2c(CN3CCCCC3)cn(CCCOCc3ccccc3)c2c1	46 µM (≈ 18.1 µg/mL)	> 50 µM
CCCCCCCCn1ccc2ccc(OCCCN3CCCCCC3)cc21	3.9 µM (≈ 1.5 µg/mL)	12 µM (≈ 4.62 µg/mL)
COc1ccc(CCCn2cc(CN3CCCCC3)c3ccc(OC)cc32)cc1	18 µM (≈ 7.07 µg/mL)	39 µM (≈ 15.3 µg/mL)
CCCCCCCCn1cc(CN2CC(c3ccccc3)C2)c2ccc(OC)cc21	2 µM (≈ 0.809 µg/mL)	4 µM (≈ 1.62 µg/mL)
CCCCCCCCn1cc(CN2CCCC(=O)CC2)c2ccc(OC)cc21	17 µM (≈ 6.54 µg/mL)	42 µM (≈ 16.2 µg/mL)
CCCCCCCCn1cc(CN2CCC3(CC2)OC[C@H](C)O3)c2ccc(OC)cc21	0.5 µM (≈ 0.214 µg/mL)	0.9 µM (≈ 0.386 µg/mL)
COc1ccc2c(CN3CCCCC3)cn(CCCOc3ccccc3)c2c1	30 µM (≈ 11.4 µg/mL)	50 µM (≈ 18.9 µg/mL)

Compound	MIC50	MIC90
COc1ccc2c(CN3CCC4(CC3)OCCCO4)cn(CCCc3ccccc3)c2c1	2.6 µM (≈ 1.13 µg/mL)	9.8 µM (≈ 4.26 µg/mL)
CCCCCCCCn1ccc2ccc(OCCCN3CCC4(CC3)OCCCO4)cc21	5.6 µM (≈ 2.48 µg/mL)	28 µM (≈ 12.4 µg/mL)
COc1ccc2c(CN3CCCCC3)cn(CCCOc3ccc(C)c(C)c3)c2c1	18 µM (≈ 7.32 µg/mL)	25 µM (≈ 10.2 µg/mL)
CCCCCCCCn1ccc2cccc(OCCCN3CCCCC3)c21	5 µM (≈ 1.85 µg/mL)	13 µM (≈ 4.82 µg/mL)
COc1ccc2c(CN3CCC4(CC3)OCCCO4)cn(CCCCc3ccccc3)c2c1	1.6 µM (≈ 0.718 µg/mL)	3.1 µM (≈ 1.39 µg/mL)
COc1ccc2c(CN3CCC4(CC3)OCCO4)cn(C/C=C/c3ccccc3)c2c1	15 µM (≈ 6.28 µg/mL)	31 µM (≈ 13 µg/mL)
COc1ccc2c(CN3CCC4(CC3)OCCCO4)cn(CCCOCc3ccccc3)c2c1	2 µM (≈ 0.929 µg/mL)	6 µM (≈ 2.79 µg/mL)
COc1ccc2c(CN3CCCCC3)cn(C/C=C/c3ccccc3)c2c1	31 µM (≈ 11.2 µg/mL)	49 µM (≈ 17.7 µg/mL)
CCCCCCCCn1cc(CN2CCC3(CC2)OCCO3)c2ccc([N+](=O)[O-])cc21	0.8 µM (≈ 0.344 µg/mL)	1.6 µM (≈ 0.687 µg/mL)
CCCCCCCCn1cc(CN2CCC(S(N)(=O)=O)CC2)c2ccc(OC)cc21	8 µM (≈ 3.49 µg/mL)	22 µM (≈ 9.58 µg/mL)
CCCCCCCCn1ccc2cccc(OCCCN3CCCC3)c21	10 µM (≈ 3.57 µg/mL)	22 µM (≈ 7.84 µg/mL)
CCCCCCCCn1cc(CN2CCC3(CC2)CNC(=O)O3)c2ccc(OC)cc21	22 µM (≈ 9.41 µg/mL)	43 µM (≈ 18.4 µg/mL)
COc1ccc2c(CN3CCC4(CC3)OCCCO4)cn(C/C=C/c3ccccc3)c2c1	4.8 µM (≈ 2.08 µg/mL)	9 µM (≈ 3.89 µg/mL)
COc1ccc(OCCCn2cc(CN3CCCCC3)c3ccc(OC)cc32)cc1	34 µM (≈ 13.9 µg/mL)	> 50 µM
COc1ccc2c(CN3CCC4(CC3)OCCO4)cn(CCCOc3ccccc3)c2c1	3 µM (≈ 1.31 µg/mL)	10 µM (≈ 4.37 µg/mL)
CCCCCCCCn1cc(CN2CCC3(CC2)OCCCO3)c2cccc([N+](=O)[O-])c21	1.3 µM (≈ 0.577 µg/mL)	3.1 µM (≈ 1.38 µg/mL)
CCCCCCCCn1cc(CN2CCC3(CCN(Cc4ccccc4)CC3)CC2)c2ccc(OC)cc21	2.3 µM (≈ 1.19 µg/mL)	4.4 µM (≈ 2.27 µg/mL)
CCCCCCCCn1cc(CN2CCC3(C2)CC3(F)F)c2ccc(OC)cc21 (stereo not given)	13 µM (≈ 5.26 µg/mL)	18 µM (≈ 7.28 µg/mL)
CCCCCCCCn1cc(CNCC2CCC3CC3C2)c2ccc(OC)cc21 (stereo not given)	1.6 µM (≈ 0.635 µg/mL)	2.3 µM (≈ 0.912 µg/mL)
CCCCCCCCn1ccc2cc(OCCCN3CCCCC3)ccc21	13 µM (≈ 4.82 µg/mL)	40 µM (≈ 14.8 µg/mL)
CCCCCCCCn1ccc2ccc(OCCCN3CCCC3)cc21	20 µM (≈ 7.13 µg/mL)	42 µM (≈ 15 µg/mL)
COc1ccc2c(CN3CCCCC3)cn(CCCCOc3ccccc3)c2c1	16 µM (≈ 6.28 µg/mL)	41 µM (≈ 16.1 µg/mL)
COc1ccc2c(CN3CCC4(CC3)OCCO4)cn(CCCCOc3ccccc3)c2c1	20 µM (≈ 9.01 µg/mL)	41 µM (≈ 18.5 µg/mL)
CCCCCCCCn1cc(CN2CCCC3(CC2)OCCCS3)c2ccc(OC)cc21 (stereo not given)	0.5 µM (≈ 0.229 µg/mL)	1 µM (≈ 0.459 µg/mL)

Compound	MIC50	MIC90
CCCCCCCCn1ccc2cc(OCCCN3CCCC3)ccc21	31 µM (≈ 11.1 µg/mL)	48 µM (≈ 17.1 µg/mL)
CCCCCCCCn1cc(CN2CC(n3cccn3)C2)c2ccc(OC)cc21	6 µM (≈ 2.37 µg/mL)	15 µM (≈ 5.92 µg/mL)
CCCCCCCCn1cc(CN2CCCCC2)c2ccc(C#N)cc21	2 µM (≈ 0.703 µg/mL)	6 µM (≈ 2.11 µg/mL)
COc1ccc2c(CN3CCC4(CC3)OCCCO4)cn(CCCOc3ccc(C)c(C)c3)c2c1	1.7 µM (≈ 0.814 µg/mL)	2.7 µM (≈ 1.29 µg/mL)
COc1ccc2c(CN3CCCCC3)cn(CCCc3ccccc3)c2c1	36 µM (≈ 13.1 µg/mL)	> 50 µM
COc1ccc(OCCCn2cc(CN3CCC4(CC3)OCCO4)c3ccc(OC)cc32)cc1	6 µM (≈ 2.8 µg/mL)	13 µM (≈ 6.07 µg/mL)
CCCCCCCCn1ccc2cc(OCCCN3CCC4(CC3)OCCCO4)ccc21	14 µM (≈ 6.2 µg/mL)	31 µM (≈ 13.7 µg/mL)
CCCCCCCCn1ccc2ccc(OCCCN3CCCCC3)cc21	13 µM (≈ 4.82 µg/mL)	25 µM (≈ 9.26 µg/mL)
CCCCCCCCn1cc(CN2CCC3(CC2)OCCO3)c2ccc(C#N)cc21	2.5 µM (≈ 1.02 µg/mL)	5 µM (≈ 2.05 µg/mL)
COc1ccc(OCCCn2cc(CN3CCC4(CC3)OCCCO4)c3ccc(OC)cc32)cc1	1.5 µM (≈ 0.721 µg/mL)	3.5 µM (≈ 1.68 µg/mL)
COc1ccc2c(CN3CCC4(CC3)OCCO4)cn(CCCCc3ccccc3)c2c1	4.9 µM (≈ 2.13 µg/mL)	11.5 µM (≈ 5 µg/mL)
CCCCCCCCn1cc(CN2CCC3(CC2)OC[C@@H](C)O3)c2ccc(OC)cc21	0.6 µM (≈ 0.257 µg/mL)	0.8 µM (≈ 0.343 µg/mL)
COc1ccc2c(CN3CCCCC3)cn(CCCOc3ccc(C)cc3)c2c1	19 µM (≈ 7.46 µg/mL)	41 µM (≈ 16.1 µg/mL)
CCCCCCCCn1cc(CN2CCC3(CC2)OCCCO3)c2ccc(OCCC)cc21	0.7 µM (≈ 0.32 µg/mL)	1.2 µM (≈ 0.548 µg/mL)
CCCCCCCCn1cc(CNCC2CC3CC3C2)c2ccc(OC)cc21 (stereo not given)	2 µM (≈ 0.765 µg/mL)	4 µM (≈ 1.53 µg/mL)
CCCCCCCCn1cc(CN2CCCCC2)c2ccc([N+](=O)[O-])cc21	4 µM (≈ 1.49 µg/mL)	5 µM (≈ 1.86 µg/mL)
CCCCCCCCn1cc(CN2[C@H]3CCC[C@@H]2CCC3)c2ccc(OC)cc21	3.8 µM (≈ 1.51 µg/mL)	7.6 µM (≈ 3.01 µg/mL)
COc1ccc2c(CN3CCC4(CC3)OCCO4)cn(CCCc3ccccc3)c2c1	6 µM (≈ 2.52 µg/mL)	18 µM (≈ 7.57 µg/mL)
CCCCCCCCn1cc(CN2CCC3(CC2)OCCCO3)c2ccc(C#N)cc21	0.5 µM (≈ 0.212 µg/mL)	1.2 µM (≈ 0.508 µg/mL)
CCCCCCCCn1cc(CN2CCC3(CC2)OCCCO3)c2ccc([N+](=O)[O-])cc21	0.3 µM (≈ 0.133 µg/mL)	0.8 µM (≈ 0.355 µg/mL)
CCCCCCCCn1ccc2ccc(OCCCN3CCC4(CC3)OC[C@H](C)O4)cc21	11 µM (≈ 4.87 µg/mL)	25 µM (≈ 11.1 µg/mL)
CCCCCCCCn1cc(CN2CCOC3(CCCOC3)C2)c2ccc(OC)cc21 (stereo not given)	1.8 µM (≈ 0.772 µg/mL)	6.3 µM (≈ 2.7 µg/mL)
